Measured values reported in PubChem BioAssay AID320 (DTP/NCI, 2004).
“And” between values parts separate entries of the source, which are not always exact repeats. Identical values can stand only once. Inconclusive results and toxic doses are left out. *1 amine or outer side, *2 acyl side, *3 side chain or, on linkers, in order; H or OH if unused. Where a SMILES comes first, the peptide text is derived from it. Bridges are numbered along the chain shown (N, C = ends). Roman numbers before positions name the chains, in order. [ ]: non-standard residue; d: D form. Actinocin(9to1) = Cc1c2oc3c(C)ccc(C(=O)[*:1])c3nc-2c(C(=O)[*:2])c(N)c1=O; aThr = C[C@H](O)[C@H](N)C(=O)O; NMeV = CN[C@H](C(=O)O)C(C)C; Sar = CNCC(=O)O

System: BDF1 mice, P329 reticulum cell sarcoma ip, survival T/C
Assay: NCI In Vivo Anticancer Drug Screen. Data for tumor model P329 Reticulum Cell Sarcoma (intraperitoneal) in B6D2F1 (BDF1) mice
Conditions: endpoint: median survival time, higher = longer survival
Description: The antitumor activity of compounds was measured in mice bearing transplantable tumors. Survival or tumor size were measured and the results are expressed as the measurement made in the treated group (T) divided by the measurement made in the vehicle treated control group (C). The tumor model used in this assay is P329 Reticulum Cell Sarcoma (intraperitoneal) in B6D2F1 (BDF1) mice

[1] = dose: 25.0 mg/kg/injection, schedule: Q01DX010 (ip), vehicle: saline
[2] = dose: 50.0 mg/kg/injection, schedule: Q01DX010 (ip), vehicle: saline
[3] = dose: 3.13 mg/kg/injection, schedule: Q01DX010 (ip), vehicle: saline
[4] = dose: 6.25 mg/kg/injection, schedule: Q01DX010 (ip), vehicle: saline
[5] = dose: 12.5 mg/kg/injection, schedule: Q01DX010 (ip), vehicle: saline
[6] = dose: 5.0 mg/kg/injection, schedule: Q01DX010 (ip), vehicle: saline
[7] = dose: 20.0 mg/kg/injection, schedule: Q01DX010 (ip), vehicle: saline
[8] = dose: 2.5 mg/kg/injection, schedule: Q01DX010 (ip), vehicle: saline
[9] = dose: 10.0 mg/kg/injection, schedule: Q01DX010 (ip), vehicle: saline

O[C@H](CN1CC1)[C@@H](O)CN1CC1
T/C (dose: 62.5 micrograms/kg/injection, schedule: Q01DX010 (ip), vehicle: saline): 106 % of control and 121 % of control | T/C (dose: 125.0 micrograms/kg/injection, schedule: Q01DX010 (ip), vehicle: saline): 123 % of control | T/C (dose: 250.0 micrograms/kg/injection, schedule: Q01DX010 (ip), vehicle: saline): 167 % of control | T/C (dose: 500.0 micrograms/kg/injection, schedule: Q01DX010 (ip), vehicle: saline): 166 % of control

CC(=O)Nc1ccc2nc3ccc(NC(C)=O)cc3[n+](-c3ccccc3)c2c1
T/C [1]: 121 % of control | T/C [2]: 114 % of control

C[C@H]1C(=O)O[C@@H]2CCN3CC=C(COC(=O)[C@](C)(O)[C@@]1(C)O)[C@H]23
T/C [3]: 106 % of control and 107 % of control | T/C [4]: 103 % of control and 107 % of control | T/C [5]: 103 % of control | T/C [1]: 100 % of control and 103 % of control

O=c1[nH]cc(F)c(=O)[nH]1
T/C [6]: 123 % of control | T/C [7]: 161 % of control and 162 % of control

S=c1nc[nH]c2nc[nH]c12
T/C (dose: 20.0 mg/kg/injection, schedule: Q01DX010 (ip), vehicle: alkali diluted with saline): 150 % of control | T/C (dose: 80.0 mg/kg/injection, schedule: Q01DX010 (ip), vehicle: alkali diluted with saline): 158 % of control

C[C@]12C=CC(=O)C=C1CC[C@@H]1[C@@H]2[C@@H](O)C[C@@]2(C)[C@H]1CC[C@]2(O)C(=O)CO
T/C (dose: 12.5 mg/kg/injection, schedule: Q01DX010 (sc), vehicle: steriod suspending solution): 100 % of control and 103 % of control | T/C (dose: 25.0 mg/kg/injection, schedule: Q01DX010 (sc), vehicle: steriod suspending solution): 100 % of control | T/C (dose: 50.0 mg/kg/injection, schedule: Q01DX010 (sc), vehicle: steriod suspending solution): 100 % of control | T/C (dose: 100.0 mg/kg/injection, schedule: Q01DX010 (sc), vehicle: steriod suspending solution): 100 % of control

N=C(N)SCc1c2ccccc2c(CSC(=N)N)c2ccccc12
T/C [8]: 112 % of control | T/C [6]: 118 % of control | T/C [9]: 106 % of control | T/C [7]: 118 % of control

Cc1c2oc3c(C)ccc(C(=O)N[C@@H]4C(=O)N[C@H](C(C)C)C(=O)N5CCC[C@H]5C(=O)N(C)CC(=O)N(C)[C@@H](C(C)C)C(=O)O[C@H]4C)c3nc-2c(C(=O)N[C@@H]2C(=O)N[C@H](C(C)C)C(=O)N3CCC[C@H]3C(=O)N(C)CC(=O)N(C)[C@@H](C(C)C)C(=O)O[C@H]2C)c(N)c1=O (I: [aThr][dV]P[Sar][NMeV] / II: [aThr][dV]P[Sar][NMeV]; ester I:1-I:C, II:1-II:C; linker I:N-II:N via Actinocin(9to1))
T/C (dose: 12.5 micrograms/kg/injection, schedule: Q01DX010 (ip), vehicle: other): 115 % of control and 120 % of control | T/C (dose: 50.0 micrograms/kg/injection, schedule: Q01DX010 (ip), vehicle: other): 166 % of control

CO[C@H](C(=O)[C@@H](O)[C@@H](C)O)[C@@H]1Cc2cc3cc(OC4CC(OC5CC(O)C(O)C(C)O5)C(O)C(C)O4)c(C)c(O)c3c(O)c2C(=O)[C@H]1OC1CC(OC2CC(OC3CC(C)(O)C(O)C(C)O3)C(O)C(C)O2)C(O)C(C)O1 (stereo partly specified)
T/C (dose: 0.5 mg/kg/injection, schedule: Q01DX010 (ip), vehicle: saline): 103 % of control | T/C (dose: 1.0 mg/kg/injection, schedule: Q01DX010 (ip), vehicle: saline): 90 % of control

O=C(O)CCCc1ccc(N(CCCl)CCCl)cc1
T/C [3]: 96 % of control and 108 % of control | T/C [4]: 103 % of control and 108 % of control | T/C [5]: 116 % of control and 119 % of control

N#[N+]c1cnc([O-])[nH]c1=O
T/C (dose: 1.25 mg/kg/injection, schedule: Q01DX010 (ip), vehicle: saline): 122 % of control | T/C [8]: 103 % of control | T/C [6]: 110 % of control | T/C [9]: 117 % of control

COc1cc(-c2ccc(Nc3ccccc3C(=O)O)c(OC)c2)ccc1Nc1ccccc1C(=O)O
T/C [5]: 100 % of control | T/C [1]: 103 % of control | T/C [2]: 110 % of control | T/C (dose: 100.0 mg/kg/injection, schedule: Q01DX010 (ip), vehicle: saline): 110 % of control

Cn1c(N)nc2nc[nH]c2c1=S
T/C [9]: 100 % of control | T/C [7]: 106 % of control | T/C (dose: 40.0 mg/kg/injection, schedule: Q01DX010 (ip), vehicle: saline): 100 % of control | T/C (dose: 80.0 mg/kg/injection, schedule: Q01DX010 (ip), vehicle: saline): 106 % of control
